Patent US4888287A, “Rapid differentiation of fungi from bacteria using polyene antibiotics” (Eastman Kodak Company, priority 1986, dated 1989)

How the values were obtained:
E. coli = experiment: Inhibition of RIND IX reduction by E. coli (gram-negative) in solution (Example 1, Table II); format: cell-based, Escherichia coli (ATCC 25922)
Procedure: (§1) gram-negative microorganism Escherichia coli (ATCC 25922), gram-positive microorganism Staphylococcus aureus (ATCC 25923), and Candida albicans yeast cells (ATCC 14053), brain heart infusion broth (BHI) and Sabaroud's dextrose broth (SAB) from Difco Laboratories (Detroit, Michigan, U.S.A.), and Aspergillus flavus (ATCC 20047), a mold from American Type Culture Collection (Rockville, Maryland, U.S.A.).
(§2) E. coli and S. aureus were grown overnight in BHI broth at 37° C. C. albicans and A. flavus were grown overnight at 25° C. in SAB broth with agitation. […]
(§3) Test solutions were prepared by adding in order: 1.2 ml of HEPES buffer, 50 μl glucose solution, 1.5 ml of RIND IX dispersion, 100 μl of antibiotic solution, 100 μl of cell suspension and 25 μl of ETA solution. […] Optical density readings (OD) were measured at 635 nm at 0 minutes and after incubation at 37° C. for 30 minutes for test and Control solutions, and the change in density (ΔOD) was determined. Table II below lists the results, expressed as corrected percent inhibition of the reduction of the RIND compound. The corrected percent inhibition is calculated by dividing the difference between the ΔOD obtained from the Control without antibiotic and the ΔOD of the test solution, by ΔOD of the Control without antibiotic. All readings were corrected by subtracting readings of the appropriate background control. […]

C. albicans = experiment: Inhibition of RIND IX reduction by C. albicans (yeast) in solution (Example 1, Table II); format: cell-based, Candida albicans (ATCC 14053)
Procedure: E. coli and S. aureus were grown overnight in BHI broth at 37° C. C. albicans and A. flavus were grown overnight at 25° C. in SAB broth with agitation. The cells were harvested by centrifugation, washed and resuspended in 0.05 molar N-2-hydroxyethylpiperazine-N'-2-ethanesulfonic acid (HEPES) buffer (pH 7.8).
Dispersions containing RIND compounds were prepared by dissolving, for example, RIND VII from Table I above in N,N-dimethylformamide (DMF) at 16 mg compound per ml of solvent. An aliquot (250 μl) of the resulting solution was added to 500 μl of TRITON X-100 surfactant. This mixture was then added dropwise with stirring to 25 ml of 0.05 molar HEPES buffer.
The following materials were used in this example: stock solutions of RIND IX compound dispersion prepared as described above, glucose (10% in water), trimethyl-1,4-benzoquinone ETA (1.5 mg/ml methanol), and the antibiotics (25 mg/ml in dimethyl sulfoxide, except that filipin was 12.5 mg/ml of solvent). Bacteria and yeast were grown as described above. The approximate final cell concentrations in the assay mixture were 4.2×10^8 cells/ml of E. coli, 7.1×10^8 cells/ml of S. aureus, and 7×10^5 of C. albicans.
Test solutions were prepared by adding in order: 1.2 ml of HEPES buffer, 50 μl glucose solution, 1.5 ml of RIND IX dispersion, 100 μl of antibiotic solution, 100 μl of cell suspension and 25 μl of ETA solution. Cell control solutions contained all reagents except antibiotics. Background controls consisted of both buffer and solution controls. The buffer control contained all reagents except antibiotics and cells. The solution control contained all reagents except cells. Optical density readings (OD) were measured at 635 nm at 0 minutes and after incubation at 37° C. for 30 minutes for test and Control solutions, and the change in density (ΔOD) was determined. […] The corrected percent inhibition is calculated by dividing the difference between the ΔOD obtained from the Control without antibiotic and the ΔOD of the test solution, by ΔOD of the Control without antibiotic. All readings were corrected by subtracting readings of the appropriate background control.
Solutions containing 2.9 ml HEPES, 50 μl of the antibiotic solution, and 100 μl cell solution were incubated at 37° C. for 30 minutes, centrifuged for 10 minutes and decanted. The resulting pellet was then treated with 1.4 ml HEPES, 50 μl glucose solution, 1.5 ml RIND IX dispersion and 25 μl ETA solution, mixed well and the optical densities recorded as described above in Method 1. The corrected percent inhibition data was calculated as described in Method 1 above.

S. aureus = experiment: Inhibition of RIND IX reduction by S. aureus (gram-positive) in solution (Example 1, Table II); format: cell-based, Staphylococcus aureus (ATCC 25923); conditions: Method 1, 635 nm, 37° C., 30 min
Procedure: as §1, §2, §3

[1] = Method 1, 635 nm, 37° C., 30 min
[2] = Method 2, preincubation for 1 hour, 635 nm

Compound	Corrected % Inhibition (E. coli; [1])	Corrected % Inhibition (C. albicans; [1])	Corrected % Inhibition (S. aureus)	Corrected % Inhibition (C. albicans; [2])	Corrected % Inhibition (E. coli; [2])
C[C@@H]1[C@H](O)[C@@H](C)/C=C/C=C/C=C/C=C/C=C/C=C/C=C/[C@H](O[C@@H]2O[C@H](C)[C@@H](O)[C@H](N)[C@@H]2O)C[C@@H]2O[C@](O)(C[C@@H](O)C[C@@H](O)[C@H](O)CC[C@@H](O)C[C@@H](O)CC(=O)O[C@H]1C)C[C@H](O)[C@H]2C(=O)O [Amphotericin B, amphotericin B]	15.1%	–	–	–	–
C[C@@H]1C/C=C/C=C/C=C/C=C/[C@H](O[C@@H]2O[C@H](C)[C@@H](O)[C@H](N)[C@@H]2O)C[C@@H]2O[C@](O)(C[C@@H](O)C[C@H]3O[C@@H]3/C=C/C(=O)O1)C[C@H](O)[C@H]2C(=O)O [Natamycin, natamycin]	–	77.9%	0.3%	–	–
C[C@@H]1[C@H](O)[C@@H](C)/C=C/C=C/CC/C=C/C=C/C=C/C=C/C(O[C@H]2O[C@H](C)[C@@H](O)[C@H](N)[C@@H]2O)CC2O[C@](O)(CC(O)C(O)CCC(O)CC(O)CC(O)CC(=O)O[C@H]1C)CC(O)C2C(=O)O (stereo partly shown) [Nystatin, nystatin]	–	76.2%	9.8%	–	–
candicidin	–	–	–	62.8%	12.5%
